Three molecules from ChEMBL document CHEMBL5715954, “Silencing c-Myc translation as a therapeutic strategy through targeting PI3Kδ and CK1ε in hematological malignancies” (Blood, 2017) can be followed below.

What all share (parameters): scale not given: the % may be the effect or the level left
Experiment [1] addresses Calcium/calmodulin-dependent protein kinase type 1B (Homo sapiens) (UniProt Q6P2M8). Kind of experiment: Inhibition of human CAMK1b assessed as enzyme activity at 1 uM using KKALRRQETVDAL as substrate preincubated for 20 mins followed by [gamma-33P]-ATP addition and measured after 120 mins by radiometric Hot-SpotSM Kinase assay relative to control.
The target in experiment [2] is Cyclin-dependent kinase 1/cyclin B1 (Homo sapiens) (UniProt P06493+P14635). The experiment is described as follows: Inhibition of human CDK1/cyclin B assessed as enzyme activity at 1 uM using RB Protein as substrate preincubated for 20 mins followed by [gamma-33P]-ATP addition and measured after 120 mins by radiometric Hot-SpotSM Kinase assay relative to control. It is filed as protein-complex assay.

For experiment [3], the target named is Cyclin-dependent kinase 5/CDK5 activator 1 (Homo sapiens) (UniProt Q00535+Q15078). The experiment is described as follows: Inhibition of human CDK5/p35 assessed as enzyme activity at 1 uM using RB Protein as substrate preincubated for 20 mins followed by [gamma-33P]-ATP addition and measured after 120 mins by radiometric Hot-SpotSM Kinase assay relative to control. It is filed as protein-complex assay.
Cyclin-dependent kinase 5/CDK5 activator 1 (Homo sapiens), sequence (Q00535 whole entry): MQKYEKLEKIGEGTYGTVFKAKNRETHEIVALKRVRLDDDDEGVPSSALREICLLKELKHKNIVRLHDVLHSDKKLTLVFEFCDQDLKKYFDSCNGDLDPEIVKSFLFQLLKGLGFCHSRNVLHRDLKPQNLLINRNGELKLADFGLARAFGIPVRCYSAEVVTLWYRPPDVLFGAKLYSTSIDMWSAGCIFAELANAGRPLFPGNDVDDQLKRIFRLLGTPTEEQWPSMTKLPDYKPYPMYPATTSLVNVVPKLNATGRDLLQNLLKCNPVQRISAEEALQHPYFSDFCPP
Cyclin-dependent kinase 5/CDK5 activator 1 (Homo sapiens), sequence (Q15078 99-307 partner limits assumed): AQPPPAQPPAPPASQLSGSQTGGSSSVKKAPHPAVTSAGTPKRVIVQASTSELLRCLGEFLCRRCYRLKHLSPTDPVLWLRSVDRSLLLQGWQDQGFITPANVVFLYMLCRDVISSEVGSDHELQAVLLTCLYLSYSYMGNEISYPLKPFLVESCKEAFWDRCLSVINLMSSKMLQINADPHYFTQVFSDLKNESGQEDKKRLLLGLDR

In experiment [4] the target is STE20-like serine/threonine-protein kinase (Homo sapiens) (UniProt Q9H2G2). The experiment is described as follows: Inhibition of human SLK assessed as enzyme activity at 1 uM using histone H3 as substrate preincubated for 20 mins followed by [gamma-33P]-ATP addition and measured after 120 mins by radiometric Hot-SpotSM Kinase assay relative to control.
Experiment [5] addresses Protein kinase C beta type (Homo sapiens) (UniProt P05771). Kind of experiment: Inhibition of human PKCb1 assessed as enzyme activity at 1 uM using ERMRPRKRQGSVRRRV as substrate preincubated for 20 mins followed by [gamma-33P]-ATP addition and measured after 120 mins by radiometric Hot-SpotSM Kinase assay relative to control.
Experiment [6] addresses Receptor-type tyrosine-protein kinase FLT3 (Homo sapiens) (UniProt P36888). Kind of experiment: Inhibition of human FLT3 assessed as enzyme activity at 1 uM using EAIYAAPFAKKK as substrate preincubated for 20 mins followed by [gamma-33P]-ATP addition and measured after 120 mins by radiometric Hot-SpotSM Kinase assay relative to control.
For experiment [7], the target named is CDC7/DBF4 (Cell division cycle 7-related protein kinase/Activator of S phase kinase) (Homo sapiens) (UniProt Q9UBU7+O00311). Kind of experiment: Inhibition of human CDC7/DBF4 assessed as enzyme activity at 1 uM using KTFCGTPEYLAPEVRREPRILSEEEQEMFRDFDYIADWC as substrate preincubated for 20 mins followed by [gamma-33P]-ATP addition and measured after 120 mins by radiometric Hot-SpotSM Kinase assay relative to control. It is filed as protein-complex assay.
CDC7/DBF4 (Cell division cycle 7-related protein kinase/Activator of S phase kinase) (Homo sapiens), sequence (O00311 whole entry, looked up): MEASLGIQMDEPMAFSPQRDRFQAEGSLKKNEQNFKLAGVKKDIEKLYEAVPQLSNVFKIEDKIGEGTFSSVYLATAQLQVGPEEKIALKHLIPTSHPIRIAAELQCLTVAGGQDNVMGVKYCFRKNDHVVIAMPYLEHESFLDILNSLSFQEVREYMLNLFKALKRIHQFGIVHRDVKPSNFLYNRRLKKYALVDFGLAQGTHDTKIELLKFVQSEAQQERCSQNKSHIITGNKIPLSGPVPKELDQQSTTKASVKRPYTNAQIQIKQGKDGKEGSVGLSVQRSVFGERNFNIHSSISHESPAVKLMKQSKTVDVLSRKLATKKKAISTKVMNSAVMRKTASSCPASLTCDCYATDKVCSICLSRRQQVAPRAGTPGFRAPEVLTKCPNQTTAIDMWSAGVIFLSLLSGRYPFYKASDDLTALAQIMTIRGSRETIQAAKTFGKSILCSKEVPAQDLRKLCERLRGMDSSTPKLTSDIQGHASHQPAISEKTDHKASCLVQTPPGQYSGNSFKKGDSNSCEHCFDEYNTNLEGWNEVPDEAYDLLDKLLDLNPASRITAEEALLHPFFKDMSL
CDC7/DBF4 (Cell division cycle 7-related protein kinase/Activator of S phase kinase) (Homo sapiens), sequence (Q9UBU7 whole entry, looked up): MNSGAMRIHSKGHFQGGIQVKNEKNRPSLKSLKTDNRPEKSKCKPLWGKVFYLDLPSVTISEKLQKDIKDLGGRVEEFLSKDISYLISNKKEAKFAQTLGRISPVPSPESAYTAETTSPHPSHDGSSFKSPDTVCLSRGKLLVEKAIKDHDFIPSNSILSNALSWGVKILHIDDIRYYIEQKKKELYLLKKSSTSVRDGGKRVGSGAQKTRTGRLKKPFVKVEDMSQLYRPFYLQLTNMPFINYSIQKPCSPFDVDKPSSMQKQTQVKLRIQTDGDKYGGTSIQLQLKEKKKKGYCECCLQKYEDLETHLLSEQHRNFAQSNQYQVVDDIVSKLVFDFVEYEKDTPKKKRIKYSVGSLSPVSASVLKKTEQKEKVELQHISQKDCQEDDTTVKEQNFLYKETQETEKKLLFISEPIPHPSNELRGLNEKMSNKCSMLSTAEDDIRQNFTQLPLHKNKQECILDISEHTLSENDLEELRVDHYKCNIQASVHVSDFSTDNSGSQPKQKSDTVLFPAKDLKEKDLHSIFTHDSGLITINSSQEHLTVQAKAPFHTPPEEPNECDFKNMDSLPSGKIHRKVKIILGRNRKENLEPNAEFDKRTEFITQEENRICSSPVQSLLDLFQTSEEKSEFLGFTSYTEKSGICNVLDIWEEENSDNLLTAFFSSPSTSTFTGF

Experiment [8] addresses Insulin-like growth factor 1 receptor (Homo sapiens) (UniProt P08069). Kind of experiment: Inhibition of human IGF1R assessed as enzyme activity at 1 uM using KKKSPGEYVNIEFG as substrate preincubated for 20 mins followed by [gamma-33P]-ATP addition and measured after 120 mins by radiometric Hot-SpotSM Kinase assay relative to control.
Experiment [9] concerns the target Dual specificity protein kinase CLK2 (Homo sapiens) (UniProt P49760). Kind of experiment: Inhibition of human CLK2 assessed as enzyme activity at 1 uM using myelin basic protein as substrate preincubated for 20 mins followed by [gamma-33P]-ATP addition and measured after 120 mins by radiometric Hot-SpotSM Kinase assay relative to control.
Experiment [10] deals with T1, Ephrin type-A receptor 8 (Homo sapiens) (UniProt P29322).
T1 sequence (whole entry): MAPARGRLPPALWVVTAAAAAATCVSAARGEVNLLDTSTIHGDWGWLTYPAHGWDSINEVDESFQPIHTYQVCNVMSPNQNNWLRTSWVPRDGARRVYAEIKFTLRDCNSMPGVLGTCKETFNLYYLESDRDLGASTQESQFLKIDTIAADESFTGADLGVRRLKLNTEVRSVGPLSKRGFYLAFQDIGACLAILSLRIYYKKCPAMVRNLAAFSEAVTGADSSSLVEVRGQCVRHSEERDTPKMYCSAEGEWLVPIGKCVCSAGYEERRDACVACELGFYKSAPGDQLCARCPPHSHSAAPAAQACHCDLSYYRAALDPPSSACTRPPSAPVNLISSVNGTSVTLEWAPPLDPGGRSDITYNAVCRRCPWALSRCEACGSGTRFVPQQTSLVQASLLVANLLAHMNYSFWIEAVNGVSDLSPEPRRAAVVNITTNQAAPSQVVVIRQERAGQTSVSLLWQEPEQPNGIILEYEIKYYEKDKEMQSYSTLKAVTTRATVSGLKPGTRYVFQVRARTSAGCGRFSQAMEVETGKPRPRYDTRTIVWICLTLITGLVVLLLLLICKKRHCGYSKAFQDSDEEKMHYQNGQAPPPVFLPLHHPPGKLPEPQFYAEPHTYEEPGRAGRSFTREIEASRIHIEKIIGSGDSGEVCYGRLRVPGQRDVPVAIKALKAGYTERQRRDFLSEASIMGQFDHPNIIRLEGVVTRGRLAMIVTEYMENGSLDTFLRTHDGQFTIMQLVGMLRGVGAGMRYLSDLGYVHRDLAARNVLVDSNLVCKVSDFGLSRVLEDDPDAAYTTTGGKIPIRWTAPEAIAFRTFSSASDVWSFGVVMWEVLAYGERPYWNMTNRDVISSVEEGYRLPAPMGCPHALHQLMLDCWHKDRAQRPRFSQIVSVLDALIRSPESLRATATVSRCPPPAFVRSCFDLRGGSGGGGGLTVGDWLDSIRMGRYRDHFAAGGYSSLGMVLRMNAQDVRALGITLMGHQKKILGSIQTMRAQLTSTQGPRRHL
The experiment is described as follows: Inhibition of human EPHA8 assessed as enzyme activity at 1 uM using poly[Glu:Tyr] (4:1) as substrate preincubated for 20 mins followed by [gamma-33P]-ATP addition and measured after 120 mins by radiometric Hot-SpotSM Kinase assay relative to control.

Experiment [11] concerns the target Tyrosine-protein kinase JAK2 (Homo sapiens) (UniProt O60674). Kind of experiment: Inhibition of human JAK2 assessed as enzyme activity at 1 uM using poly[Glu:Tyr] (4:1) as substrate preincubated for 20 mins followed by [gamma-33P]-ATP addition and measured after 120 mins by radiometric Hot-SpotSM Kinase assay relative to control.
Experiment [12] deals with MAP kinase-activated protein kinase 3 (Homo sapiens) (UniProt Q16644). The experiment is described as follows: Inhibition of human MAPKAPK3 assessed as enzyme activity at 1 uM using KKLNRTLSVA as substrate preincubated for 20 mins followed by [gamma-33P]-ATP addition and measured after 120 mins by radiometric Hot-SpotSM Kinase assay relative to control.

Dual specificity protein kinase CLK2 (Homo sapiens), sequence (P49760 whole entry, looked up): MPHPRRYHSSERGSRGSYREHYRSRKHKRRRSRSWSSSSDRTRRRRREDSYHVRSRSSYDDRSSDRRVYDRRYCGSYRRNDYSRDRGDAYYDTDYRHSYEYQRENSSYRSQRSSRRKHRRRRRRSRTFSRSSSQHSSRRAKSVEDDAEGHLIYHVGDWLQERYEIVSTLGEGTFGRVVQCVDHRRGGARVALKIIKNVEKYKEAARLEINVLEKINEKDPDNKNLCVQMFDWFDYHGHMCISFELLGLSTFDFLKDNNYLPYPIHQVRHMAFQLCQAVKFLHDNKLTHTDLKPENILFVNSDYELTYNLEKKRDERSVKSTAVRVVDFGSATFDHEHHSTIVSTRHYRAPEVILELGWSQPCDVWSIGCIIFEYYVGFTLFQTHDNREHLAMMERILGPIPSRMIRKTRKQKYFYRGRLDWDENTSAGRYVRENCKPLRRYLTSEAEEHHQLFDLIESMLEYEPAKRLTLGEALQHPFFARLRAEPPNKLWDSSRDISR
Tyrosine-protein kinase JAK2 (Homo sapiens), sequence (O60674 whole entry): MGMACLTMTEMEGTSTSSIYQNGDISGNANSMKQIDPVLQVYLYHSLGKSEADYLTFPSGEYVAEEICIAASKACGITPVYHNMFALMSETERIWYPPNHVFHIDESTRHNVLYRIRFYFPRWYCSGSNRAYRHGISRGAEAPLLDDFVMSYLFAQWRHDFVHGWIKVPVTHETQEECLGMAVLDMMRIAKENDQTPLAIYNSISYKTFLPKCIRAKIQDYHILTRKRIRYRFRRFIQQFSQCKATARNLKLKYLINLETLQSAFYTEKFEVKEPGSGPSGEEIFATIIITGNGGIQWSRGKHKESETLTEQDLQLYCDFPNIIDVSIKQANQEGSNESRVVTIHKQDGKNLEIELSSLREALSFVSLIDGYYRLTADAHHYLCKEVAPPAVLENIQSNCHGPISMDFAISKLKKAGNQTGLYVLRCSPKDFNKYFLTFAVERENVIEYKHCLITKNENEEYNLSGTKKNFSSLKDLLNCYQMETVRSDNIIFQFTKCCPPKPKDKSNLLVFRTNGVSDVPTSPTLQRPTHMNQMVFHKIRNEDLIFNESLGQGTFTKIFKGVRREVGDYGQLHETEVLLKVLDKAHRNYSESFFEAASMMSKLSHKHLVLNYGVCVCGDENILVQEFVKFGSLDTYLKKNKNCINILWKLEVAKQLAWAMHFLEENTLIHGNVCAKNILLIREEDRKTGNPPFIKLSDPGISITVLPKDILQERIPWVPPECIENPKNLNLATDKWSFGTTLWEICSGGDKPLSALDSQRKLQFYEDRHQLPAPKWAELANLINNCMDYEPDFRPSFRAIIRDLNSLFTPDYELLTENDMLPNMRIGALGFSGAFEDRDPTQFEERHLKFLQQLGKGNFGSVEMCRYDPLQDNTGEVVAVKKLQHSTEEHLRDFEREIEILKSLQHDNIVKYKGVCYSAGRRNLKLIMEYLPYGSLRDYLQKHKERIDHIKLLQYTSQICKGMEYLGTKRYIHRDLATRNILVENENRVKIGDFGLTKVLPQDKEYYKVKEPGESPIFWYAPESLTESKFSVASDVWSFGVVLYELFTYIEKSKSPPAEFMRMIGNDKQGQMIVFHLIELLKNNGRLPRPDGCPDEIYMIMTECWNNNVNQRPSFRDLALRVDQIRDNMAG
Protein kinase C beta type (Homo sapiens), sequence (P05771 2-671 limits assumed): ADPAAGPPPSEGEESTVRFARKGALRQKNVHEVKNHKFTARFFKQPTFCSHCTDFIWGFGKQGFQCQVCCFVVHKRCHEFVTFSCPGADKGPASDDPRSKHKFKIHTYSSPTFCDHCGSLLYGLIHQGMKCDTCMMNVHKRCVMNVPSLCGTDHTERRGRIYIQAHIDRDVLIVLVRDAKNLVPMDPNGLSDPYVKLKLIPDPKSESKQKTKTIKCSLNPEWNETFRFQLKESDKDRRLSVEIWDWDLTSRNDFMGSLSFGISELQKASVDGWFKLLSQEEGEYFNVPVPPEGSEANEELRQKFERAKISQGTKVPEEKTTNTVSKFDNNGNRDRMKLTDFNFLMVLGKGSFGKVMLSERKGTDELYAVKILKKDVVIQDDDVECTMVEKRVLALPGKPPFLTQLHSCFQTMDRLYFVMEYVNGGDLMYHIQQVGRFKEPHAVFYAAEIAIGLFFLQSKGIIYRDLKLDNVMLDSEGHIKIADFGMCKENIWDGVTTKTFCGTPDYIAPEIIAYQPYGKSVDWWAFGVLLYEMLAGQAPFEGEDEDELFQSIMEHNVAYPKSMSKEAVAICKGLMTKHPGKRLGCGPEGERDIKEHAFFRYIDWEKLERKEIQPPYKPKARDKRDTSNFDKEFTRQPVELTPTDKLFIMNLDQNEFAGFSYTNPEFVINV
Receptor-type tyrosine-protein kinase FLT3 (Homo sapiens), sequence (P36888 whole entry): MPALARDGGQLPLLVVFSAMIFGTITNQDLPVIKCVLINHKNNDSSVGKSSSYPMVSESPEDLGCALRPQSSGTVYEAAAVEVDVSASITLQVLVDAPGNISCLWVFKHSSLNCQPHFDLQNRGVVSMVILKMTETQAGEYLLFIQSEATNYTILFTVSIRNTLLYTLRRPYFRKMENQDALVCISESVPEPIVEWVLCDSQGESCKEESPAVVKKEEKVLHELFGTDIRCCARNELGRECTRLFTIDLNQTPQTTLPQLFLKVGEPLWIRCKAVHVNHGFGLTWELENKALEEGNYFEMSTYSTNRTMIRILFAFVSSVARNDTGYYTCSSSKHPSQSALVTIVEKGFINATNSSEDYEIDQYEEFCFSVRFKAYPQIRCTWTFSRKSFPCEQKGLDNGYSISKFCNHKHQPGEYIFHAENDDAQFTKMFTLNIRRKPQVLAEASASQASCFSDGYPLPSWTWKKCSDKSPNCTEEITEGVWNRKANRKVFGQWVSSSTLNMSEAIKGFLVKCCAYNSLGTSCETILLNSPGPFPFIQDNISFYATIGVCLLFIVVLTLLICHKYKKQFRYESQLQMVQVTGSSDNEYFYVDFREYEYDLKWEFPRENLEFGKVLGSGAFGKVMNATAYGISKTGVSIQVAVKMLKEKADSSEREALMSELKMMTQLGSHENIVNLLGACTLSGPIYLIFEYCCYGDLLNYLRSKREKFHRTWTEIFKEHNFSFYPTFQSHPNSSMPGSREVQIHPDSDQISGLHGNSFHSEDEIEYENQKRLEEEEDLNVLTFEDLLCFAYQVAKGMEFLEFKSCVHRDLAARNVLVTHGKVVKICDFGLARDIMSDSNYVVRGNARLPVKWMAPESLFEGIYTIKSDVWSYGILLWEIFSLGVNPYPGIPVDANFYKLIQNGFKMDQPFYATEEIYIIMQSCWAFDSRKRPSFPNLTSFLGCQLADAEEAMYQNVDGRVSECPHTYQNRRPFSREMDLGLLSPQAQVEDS

Consider `C[C@H](Nc1ncnc2nc[nH]c12)c1cc2cccc(Cl)c2c(=O)n1-c1ccccc1`, for which the Activity was 102% in experiment [1]; 97% in experiment [2]; 97.1% in experiment [3]; 97.5% in experiment [4]; 99.4% in [5]; 101% in experiment [6]. Also, the Activity in experiment [7] came to 93.8%; in [8], 102%; in [9] it was 95.3%; in experiment [10], 99.1%; in experiment [11], 100%; in experiment [12] it was 95.8%.

`CC[C@H](Nc1ncnc2[nH]cnc12)c1nc2cccc(F)c2c(=O)n1-c1ccccc1`: the Activity worked out at 103% in experiment [1]; 102% in experiment [2]; 97.4% in [3]; 97.3% in experiment [4]; 98.7% in experiment [5]; 99.3% in experiment [6]. Also, the Activity in experiment [7] turned out to be 91.6%; in experiment [8], 91.5%; in experiment [9] it was 96.9%; in [10], 97.6%; in experiment [11] it was 95.7%; in [12], 97.3%.

With `CC(C)Oc1ccc(-c2nn([C@@H](C)c3oc4ccc(F)cc4c(=O)c3-c3cccc(F)c3)c3ncnc(N)c23)cc1F` [UMBRALISIB], the Activity in [1] came to 100%; in [2] it was 98.9%; in experiment [3], 91.7%; in experiment [4], 94.5%; in experiment [5], 99%; in [6], 95.5%. The Activity came out at 92% in experiment [7]; 96.5% in experiment [8]; 99.5% in experiment [9]; 95.8% in experiment [10]; 92% in experiment [11]; 90.6% in experiment [12].
